Assay results as given in ChEMBL document CHEMBL1795221, “In vitro and in vivo anticancer activity evaluation of ursolic acid derivatives” (Eur J Med Chem, 2011).
Activity calls are given as the source filed them. No cut-off for these calls is given here.

Experiments:
H22 [1] = test: animal or person; settings: Mus musculus, H22, ip, 168 h, read-out: INH
Description: Antitumor activity against mouse H22 cells xenografted in kunming mouse assessed as inhibition of tumor growth at 15 mg/kg, ip for 7 days

[2] = Cytotoxicity against human HELF cells after 24 hrs by MTT assay; type: cell-based
HepG2 [3] = test: cells; settings: Homo sapiens, HepG2, 24 h
Description: Cytotoxicity against human HepG2 cells after 24 hrs by MTT assay

SH-SY5Y = test: Cytotoxicity against human SH-SY5Y cells after 24 hrs by MTT assay; type: functional, cell-based
BGC-823 [4] = test: Cytotoxicity against human BGC823 cells after 24 hrs by MTT assay; type: functional, cell-based; settings: BGC-823, 24 h
HeLa = test: cells; settings: Homo sapiens, 24 h
Description: Cytotoxicity against human HeLa cells after 24 hrs by MTT assay

H22 [5] = test: Antitumor activity against mouse H22 cells xenografted in kunming mouse assessed as inhibition of tumor growth at 150 mg/kg, ip for 7 days; type: functional; settings: 168 h, route intraperitoneal
HepG2 [6] = test: Cell cycle arrest in human HepG2 cells assessed as reduction at G2/M phase after 24 hrs using propidium iodide staining by flow cytometric analysis; type: functional, cell-based
HepG2 [7] = test: Cell cycle arrest in human HepG2 cells assessed as accumulation at G0/G1 phase at 20 uM after 24 hrs using propidium iodide staining by flow cytometric analysis (reference value: 57.03 %); type: functional
HepG2 [8] = test: Induction of apoptosis in human HepG2 cells assessed as increase in caspase-3 activity at 10 to 30 uM after 24 hrs by spectrophotometry; type: functional, cell-based
HepG2 [9] = test: Cell cycle arrest in human HepG2 cells assessed as accumulation at G0/G1 phase at 30 uM after 24 hrs using propidium iodide staining by flow cytometric analysis (reference value: 57.03 %); type: functional
HepG2 [10] = test: Cell cycle arrest in human HepG2 cells assessed as accumulation at G2/M phase at 30 uM after 24 hrs using propidium iodide staining by flow cytometric analysis (reference value: 14.31 %); type: functional
HepG2 [11] = test: Cell cycle arrest in human HepG2 cells assessed as accumulation at S phase after 24 hrs using propidium iodide staining by flow cytometric analysis; type: functional, cell-based
HepG2 [12] = test: Cell cycle arrest in human HepG2 cells assessed as accumulation at G0/G1 phase at 10 uM after 24 hrs using propidium iodide staining by flow cytometric analysis (reference value: 57.03 %); type: functional
HepG2 [13] = test: Cell cycle arrest in human HepG2 cells assessed as accumulation at G0/G1 phase after 24 hrs using propidium iodide staining by flow cytometric analysis; type: functional, cell-based
H22 [14] = test: Antitumor activity against mouse H22 cells xenografted in kunming mouse assessed as inhibition of tumor growth at 50 mg/kg, ip for 7 days; type: functional; settings: 168 h, read-out: INH, route intraperitoneal
HepG2 [15] = test: Cell cycle arrest in human HepG2 cells assessed as accumulation at G2/M phase at 10 uM after 24 hrs using propidium iodide staining by flow cytometric analysis (reference value: 14.31 %); type: functional
HepG2 [16] = test: Cell cycle arrest in human HepG2 cells assessed as accumulation at S phase at 20 uM after 24 hrs using propidium iodide staining by flow cytometric analysis (reference value: 28.66 %); type: functional
HepG2 [17] = test: Induction of apoptosis in human HepG2 cells at 10 to 30 uM after 24 hrs using acridine orange staining by fluorescence microscopy; type: functional, cell-based
H22 [18] = test: Antitumor activity against mouse H22 cells xenografted in kunming mouse assessed as inhibition of tumor growth at 100 mg/kg, ip for 7 days; type: functional; settings: 168 h, route intraperitoneal
HepG2 [19] = test: Cell cycle arrest in human HepG2 cells assessed as accumulation at S phase at 30 uM after 24 hrs using propidium iodide staining by flow cytometric analysis (reference value: 28.66 %); type: functional
H22 [20] = test: Antitumor activity against mouse H22 cells xenografted in kunming mouse assessed as increase in body weight at 50 to 150 mg/kg, ip for 7 days; type: functional, organism-based
HepG2 [21] = test: Cell cycle arrest in human HepG2 cells assessed as accumulation at S phase at 10 uM after 24 hrs using propidium iodide staining by flow cytometric analysis (reference value: 28.66 %); type: functional
HepG2 [22] = test: Cell cycle arrest in human HepG2 cells assessed as accumulation at G2/M phase at 20 uM after 24 hrs using propidium iodide staining by flow cytometric analysis (reference value: 14.31 %); type: functional
HepG2 [23] = test: Induction of apoptosis in human HepG2 cells at 10 to 30 uM after 24 hrs using annexin V-EGFP/PI double staining by flow cytometry; type: functional, cell-based
BGC-823 [24] = test: Induction of apoptosis in human BGC823 cells assessed as increase in caspase-3 activity at 10 to 30 uM after 24 hrs by spectrophotometry; type: functional, cell-based

Row | Compound | IC50 [2] [µM] | IC50 (HepG2 [3]) [µM] | IC50 (SH-SY5Y) [µM] | IC50 (BGC-823 [4]) [µM] | IC50 (HeLa) [µM] | also measured
1 | O=P1(N(CCCl)CCCl)NCCCO1 (configuration not stated) [CYCLOPHOSPHAMIDE ANHYDROUS] |  |  |  |  |  | inhibition in vivo at 15 mg/kg (H22 [1]): 55%
2 | C[C@H]1[C@H](C)CC[C@]2(C(=O)O)CC[C@]3(C)C(=CC[C@@H]4[C@@]5(C)CC[C@H](O)C(C)(C)[C@@H]5CC[C@]43C)[C@H]12 [URSOLIC ACID] | 21.3 | 68.8 | 54.6 | 66.4 | 33.1 | inhibition in vivo at 150 mg/kg (H22 [5]): 36.2%
3 | CCCCOC(=O)[C@]12CC[C@@H](C)[C@H](C)[C@H]1C1=CC[C@@H]3[C@@]4(C)CC[C@H](O)C(C)(C)[C@@H]4CC[C@@]3(C)[C@]1(C)CC2 | > 100 | > 100 | > 100 | > 100 | 63.2 | 
4 | C[C@H]1[C@H](C)CC[C@]2(C(=O)NCCO)CC[C@]3(C)C(=CC[C@@H]4[C@@]5(C)CC[C@H](O)C(C)(C)[C@@H]5CC[C@]43C)[C@H]12 | 52.8 | 82.4 | 65 | 78.3 | 32.3 | 
5 | CC(=O)O[C@H]1CC[C@]2(C)[C@H]3CC=C4[C@@H]5[C@@H](C)[C@H](C)CC[C@]5(C(=O)N5CCN(CCO)CC5)CC[C@@]4(C)[C@]3(C)CC[C@H]2C1(C)C | 31 | 20.5 | 11.7 | 13.9 | 7.24 | 
6 | COC(=O)C(Cc1ccc(O)cc1)NC(=O)[C@]12CC[C@@H](C)[C@H](C)[C@H]1C1=CC[C@@H]3[C@@]4(C)CC[C@H](OC(C)=O)C(C)(C)[C@@H]4CC[C@@]3(C)[C@]1(C)CC2 (some centres not stated) | 35.8 | > 100 | > 100 | 83 | 67 | 
7 | CCCOC(=O)[C@]12CC[C@@H](C)[C@H](C)[C@H]1C1=CC[C@@H]3[C@@]4(C)CC[C@H](OC(C)=O)C(C)(C)[C@@H]4CC[C@@]3(C)[C@]1(C)CC2 | > 100 | > 100 | > 100 | > 100 | > 100 | 
8 | C[C@H]1[C@H](C)CC[C@]2(C(=O)OCCCCO[N+](=O)[O-])CC[C@]3(C)C(=CC[C@@H]4[C@@]5(C)CC[C@H](O)C(C)(C)[C@@H]5CC[C@]43C)[C@H]12 | > 100 | > 100 | > 100 | > 100 | > 100 | 
9 | CC(=O)O[C@H]1CC[C@]2(C)[C@H]3CC=C4[C@@H]5[C@@H](C)[C@H](C)CC[C@]5(C(=O)N(CCO)CCO)CC[C@@]4(C)[C@]3(C)CC[C@H]2C1(C)C | 38.1 | 20.2 | 13.2 | 15.5 | 10.9 | Activity (HepG2 [6]): Dose-dependent effect; Activity (HepG2 [7]): 52.91%; Activity (HepG2 [8]): Dose-dependent effect; Activity (HepG2 [9]): 51.57%; Activity (HepG2 [10]): 6.9%; Activity (HepG2 [11]): Dose-dependent effect; Activity (HepG2 [12]): 55.89%; Activity (HepG2 [13]): Dose-dependent effect; inhibition in vivo at 50 mg/kg (H22 [14]): 36.6%; Activity (HepG2 [15]): 11.98%; Activity (HepG2 [16]): 37.43%; Activity (HepG2 [17]): Active; inhibition in vivo at 100 mg/kg (H22 [18]): 45.6%; Activity (HepG2 [19]): 41.53%; Activity (H22 [20]): Active; Activity (HepG2 [21]): 32.13%; Activity (HepG2 [22]): 9.66%; Activity (HepG2 [23]): Dose-dependent effect; Activity (BGC-823 [24]): Dose-dependent effect; inhibition in vivo at 150 mg/kg (H22 [5]): 43%
10 | CCCCOC(=O)[C@]12CC[C@@H](C)[C@H](C)[C@H]1C1=CC[C@@H]3[C@@]4(C)CC[C@H](OC(C)=O)C(C)(C)[C@@H]4CC[C@@]3(C)[C@]1(C)CC2 | > 100 | > 100 | > 100 | > 100 | > 100 | 
11 | C[C@H]1[C@H](C)CC[C@]2(C(=O)N3CCC(CCO)CC3)CC[C@]3(C)C(=CC[C@@H]4[C@@]5(C)CC[C@H](O)C(C)(C)[C@@H]5CC[C@]43C)[C@H]12 | > 100 | > 100 | > 100 | > 100 | 67.3 | 
12 | CCOC(=O)[C@]12CC[C@@H](C)[C@H](C)[C@H]1C1=CC[C@@H]3[C@@]4(C)CC[C@H](O)C(C)(C)[C@@H]4CC[C@@]3(C)[C@]1(C)CC2 | 81.9 | 70.8 | 66.3 | 69.3 | 29.2 | 
13 | C[C@H]1[C@H](C)CC[C@]2(C(=O)OCCO[N+](=O)[O-])CC[C@]3(C)C(=CC[C@@H]4[C@@]5(C)CC[C@H](O)C(C)(C)[C@@H]5CC[C@]43C)[C@H]12 | 68.1 | 79.6 | 71.1 | 84.2 | 36.2 | 
14 | C[C@H]1[C@H](C)CC[C@]2(C(=O)N(CCO)CCO)CC[C@]3(C)C(=CC[C@@H]4[C@@]5(C)CC[C@H](O)C(C)(C)[C@@H]5CC[C@]43C)[C@H]12 | 36.9 | 35.7 | 21.4 | 39.3 | 14.4 | 
